Several values for one entry are separate records, joined by “and”; a condition that tells them apart may be missing. Identical values can stand only once. Blank lines part the entries; values can stand above or below the compound they belong to.
Legend:
[1] = target: T1, Trypanothione reductase (Trypanosoma cruzi, UniProt P28593); assay: Inhibition of Trypanosoma cruzi TryR
[2] = target: T1, Trypanothione reductase; assay: Inhibition of Trypanosoma cruzi TryR assessed as inhibition constant
[3] = test system: Leishmania braziliensis; assay: Antiprotozoal activity against Leishmania braziliensis MHOM/PE/84/LC26 amastigotes infected in mouse J774.2 cells measured after 72 hrs; assay type: functional, organism-based; settings: J774.2, 72 h
[4] = target: T1, Trypanothione reductase; assay: Inhibition of Trypanosoma cruzi TryR expressed in escherichia coli in presence of NADPH
[5] = target: T1, Trypanothione reductase; assay: Inhibition of Trypanosoma cruzi TryR assessed as inhibition constant in presence of NADPH
[6] = test system: Leishmania donovani; assay: Antiprotozoal activity against Leishmania donovani MHOM/SD/00/1S-2D strain promastigotes assessed as parasitic death; assay type: functional, organism-based
[7] = test system: Leishmania donovani; assay: Antiprotozoal activity against Leishmania donovani MHOM/SD/00/1S-2D strain promastigotes assessed as parasitic death at 10 uM relative to control; assay type: functional
[8] = test system: Bacteria; assay: Inhibition of TryR (unknown origin) at 10 uM relative to control
[9] = Inhibition of TryR (unknown origin) assessed as inhibition constant; design: species or system Bacteria
[10] = test system: Leishmania donovani; assay: Antiprotozoal activity against Leishmania donovani amastigotes assessed as growth inhibition measured after 7 days relative to control; assay type: functional; settings: time 7 day
[11] = test system: Trypanosoma brucei; assay: Trypanocidal activity against Trypanosoma brucei trypomastigotes; assay type: functional, organism-based
[12] = target: T2, Trypanothione reductase (Trypanosoma brucei brucei, UniProt P39051); assay: Inhibition of Trypanosoma brucei TryR
[13] = test system: Leishmania donovani; assay: Antiprotozoal activity against Leishmania donovani promastigotes; assay type: functional, organism-based
[14] = test system: Bacteria; assay: Inhibition of TryS (unknown origin) at 10 uM relative to control
[15] = test system: Leishmania amazonensis; assay: Antiprotozoal activity against Leishmania amazonensis promastigotes measured after 48 hrs by MTT assay; assay type: functional, organism-based
[16] = test system: Trypanosoma cruzi; assay: Antiprotozoal activity against Trypanosoma cruzi epimastigotes; assay type: functional, organism-based; settings: Trypanosoma cruzi
[17] = target: T1, Trypanothione reductase; assay: Inhibition of Trypanosoma cruzi TryR assessed as inhibition constant by TR assay
[18] = test system: Trypanosoma cruzi; assay: Antiprotozoal activity against Trypanosoma cruzi; assay type: functional, organism-based
[19] = test system: Trypanosoma brucei brucei; assay: Antiprotozoal activity against Trypanosoma brucei brucei; assay type: functional, organism-based
[20] = test system: Trypanosoma; assay: Inhibition of Trypanosomal TryS at 10 uM relative to control
[21] = test system: Leishmania donovani; assay: Antiprotozoal activity against Leishmania donovani promastigote at 10 uM relative to control; assay type: functional
[22] = target: T2, Trypanothione reductase; assay: Inhibition of Trypanosoma brucei TryR assessed as inhibition constant
[23] = test system: Trypanosoma brucei brucei; assay: Antiprotozoal activity against Trypanosoma brucei brucei Lab 110 EATRO strain; assay type: functional, organism-based
[24] = test system: Leishmania donovani; assay: Antiprotozoal activity against Leishmania donovani MHOM/IN/1978/UR6 strain promastigotes assessed as parasite growth inhibition; assay type: functional, organism-based
[25] = test system: Leishmania amazonensis; assay: Antiprotozoal activity against Leishmania amazonensis measured after 3 days by MTT assay; assay type: functional, organism-based; settings: 72 h
[26] = test system: Leishmania chagasi; assay: Antiprotozoal activity against Leishmania chagasi measured after 3 days by MTT assay; assay type: functional, organism-based; settings: 72 h

T1 sequence (P28593 whole entry): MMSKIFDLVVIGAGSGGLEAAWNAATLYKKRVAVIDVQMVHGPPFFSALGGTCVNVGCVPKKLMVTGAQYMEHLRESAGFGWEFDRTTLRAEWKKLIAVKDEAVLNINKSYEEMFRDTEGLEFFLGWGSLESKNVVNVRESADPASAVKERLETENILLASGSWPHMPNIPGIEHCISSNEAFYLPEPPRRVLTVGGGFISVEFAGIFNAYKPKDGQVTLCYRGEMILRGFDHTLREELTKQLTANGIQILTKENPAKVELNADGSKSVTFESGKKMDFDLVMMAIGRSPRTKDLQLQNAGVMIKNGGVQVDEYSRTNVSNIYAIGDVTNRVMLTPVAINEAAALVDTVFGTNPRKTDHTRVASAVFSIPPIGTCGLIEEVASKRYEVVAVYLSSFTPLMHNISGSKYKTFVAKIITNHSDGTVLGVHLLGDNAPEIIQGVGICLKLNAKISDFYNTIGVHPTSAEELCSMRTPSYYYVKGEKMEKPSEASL
T2 sequence (P39051 whole entry): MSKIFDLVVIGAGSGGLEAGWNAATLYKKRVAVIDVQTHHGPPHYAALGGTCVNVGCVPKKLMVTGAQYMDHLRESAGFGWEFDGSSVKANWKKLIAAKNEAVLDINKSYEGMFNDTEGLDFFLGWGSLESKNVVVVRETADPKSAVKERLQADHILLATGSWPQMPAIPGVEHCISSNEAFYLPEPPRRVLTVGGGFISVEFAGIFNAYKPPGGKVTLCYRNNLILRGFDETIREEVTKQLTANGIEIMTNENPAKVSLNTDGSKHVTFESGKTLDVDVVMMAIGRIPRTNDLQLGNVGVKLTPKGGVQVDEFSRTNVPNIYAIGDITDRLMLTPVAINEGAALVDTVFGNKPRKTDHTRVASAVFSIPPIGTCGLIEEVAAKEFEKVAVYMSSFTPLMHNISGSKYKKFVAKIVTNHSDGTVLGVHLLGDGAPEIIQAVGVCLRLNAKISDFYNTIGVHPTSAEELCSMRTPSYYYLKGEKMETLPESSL

Compound: NCCCN1CCN(CCCNC2=C(c3c[nH]c4ccccc34)C(=O)N(CCCN3CCN(CCCN)CC3)C2=O)CC1
IC50 [1]: 5.4 µM

Compound: CC(=O)NCCCCNCCCNC(C)=O
Ki [5]: > 2000 µM

Compound: COc1ccc2nc3cc(Cl)ccc3c(NCCCCNCCCNc3c4ccc(Cl)cc4nc4ccc(OC)cc34)c2c1
IC50 [6]: 1 µM
inhibition at 10 µM [7]: 90%

Compound: COC(=O)/N=C(\NCCCN1CCN(C)CC1)NC(=O)OC
inhibition (INH) [10]: 85%

Compound: CC(=O)c1ccc(Sc2ccccc2NCCCN(CCCN)CCCCN(CCCN)CCCNc2cc(Cl)ccc2Sc2ccc(C(C)=O)cc2)cc1
Ki [9]: 0.4 µM

Compound: O=C(NCCCCNCCCNC(=O)C(F)(F)F)C(F)(F)F
Ki [5]: > 2000 µM

Compound: CN1CCN(CCCNCCC#N)CC1
inhibition (INH) [10]: 80%

Compound: CN1CCN(CCCN2c3ccccc3Sc3ccc(Cl)cc32)CC1 [PROCHLORPERAZINE]
IC50 [12]: 7.5 µM

Compound: NCCCCNCCCNC(=O)CN1C(=O)Cc2c([nH]c3ccc(Br)cc23)-c2ccccc21
inhibition [14]: 22%

Compound: CC(C)=CCC/C(C)=C/CC/C(C)=C/CN1CCNCC1
IC50 [15]: 13 µM

Compound: CCN(CCCCN1CN(C(CC(C)C)C(=O)O)CSC1=S)CCCN1CN(C(CC(C)C)C(=O)O)CSC1=S (stereo not drawn)
IC50 [18]: 3.64 µM

Compound: COc1cc(CN(CCCN)Cc2ccc(OCc3ccc(Br)cc3)c(OC)c2)ccc1OCc1ccc(Br)cc1
IC50 [13]: < 1 µM

Compound: COc1ccc2nc3cc(Cl)ccc3c(NCCCCCCCCNc3c4ccc(Cl)cc4nc4ccc(OC)nc34)c2c1
inhibition at 10 µM [21]: 42%

Compound: CN1CCN(CCCNC(=O)/C=C/c2ccc3occ(/C=C/C(=O)NCCCN4CCN(C)CC4)c3c2)CC1
Ki [9]: 3.5 µM

Compound: CC(C)=CCC/C(C)=C/CC/C(C)=C/CNCCCN
IC50 [15]: 4.9 µM

Compound: CC(C)=CCC/C(C)=C/CC/C(C)=C/CNCCN
IC50 [15]: 16.8 µM

Compound: O=C(Cc1ccccc1)NCCCNCCCCNCCCNC(=O)Cc1ccccc1
Ki [22]: > 100 µM

Compound: N=C(N)c1ccc(N2CCCN(c3ccc(C(=N)N)cc3)CC2)cc1
IC50 [23]: 0.002 µM

Compound: CN1CCN(CCC(=O)Nc2cc(Cl)ccc2Sc2cccc(NC(=O)CCCC(=O)Nc3cccc(Sc4ccc(Cl)cc4NC(=O)CCN4CCN(C)CC4)c3)c2)CC1
IC50 [1]: 0.93 µM
IC50 [3]: 0.93 µM

Compound: CCCNCCCNC(=O)CNC(=O)[C@H](CC(Br)C(Br)C[C@H](NC(=O)OCc1ccccc1)C(=O)NCC(=O)NCCCNCCC)NC(=O)OCc1ccccc1 (stereo partly drawn)
Ki [2]: 15.9 µM

Compound: c1ccc(CNCCCCNCCCCCCCCCCCCNCCCNCc2ccccc2)cc1
IC50 [24]: 4 µM

Compound: COc1ccc2c(C(=O)C(=O)NCCCNCCCCCCCCCCCCNCCCNC(=O)C(=O)c3c[nH]c4cc(OC)ccc34)c[nH]c2c1
IC50 [19]: 0.18 µM

Compound: CCCCCCCCCCCCNCCCCN
IC50 [25]: 5.13 µM
IC50 [26]: 0.53 µM

Further lines, with some results ahead:

Ki [2]: > 100 µM
Compound: NCCCCN(CCCN)Cc1ccccc1

IC50 [3]: 0.55 µM
Compound: CN1CCN(CCC(=O)Nc2cc(Br)ccc2Sc2cccc(NC(=O)CCCC(=O)Nc3cccc(Sc4ccc(Br)cc4NC(=O)CCN4CCN(C)CC4)c3)c2)CC1

IC50 [4]: > 57 µM
Compound: O=C1NC(=O)C(c2c[nH]c3ccccc23)=C1NCCCNCCCNC1=C(c2c[nH]c3ccccc23)C(=O)NC1=O

inhibition [8]: 98%
Ki [9]: 0.076 µM and 0.08 µM
Compound: O=C(Cc1c[nH]c2cc(Br)ccc12)NCCCNCCCCNCCCNC(=O)Cc1c[nH]c2cc(Br)ccc12

Ki [9]: 114 µM
Compound: O=C1CC[C@]23/C=C/C(=O)NCCCCNCCCNC(=O)/C=C/c4ccc(c2c4)O[C@@H]3C1
IC50 [11]: 65 µM

Ki [5]: > 2000 µM
Compound: CC(C)(C)OC(=O)N(CCCN)CCCCN

Ki [5]: > 2000 µM
Compound: CC(=O)N(CCCN)CCCCN

IC50 [13]: < 1 µM
Compound: NCCCCN(Cc1ccccc1)Cc1ccc(OCc2ccccc2)cc1

Ki [2]: > 100 µM
Compound: NCCCCN(CCCN)C(=O)OCc1ccccc1

IC50 [16]: 10 µM
Ki [17]: 86 µM
Compound: Clc1ccc(Sc2ccccc2)c(NCCN2CCCC2)c1

IC50 [19]: 0.04 µM
Compound: CC[C@H](C)CNCCCNCCCCCCCNCCCNC[C@@H](C)CC

inhibition [20]: 90%
Compound: CNCCNC(=O)CN1C(=O)Cc2c([nH]c3ccc(Br)cc23)-c2ccccc21

IC50 [19]: > 15 µM
Compound: N=C(NCCCNCCCCCCCNCCCNC(=N)NC1CCCCCC1)NC1CCCCCC1

Ki [17]: 90 µM
Compound: CN(C)CCNc1cc(Cl)ccc1Sc1ccccc1

— ChEMBL document CHEMBL5260817, “Polyamine-based analogs and conjugates as antikinetoplastid agents” (Eur J Med Chem, 2017)
